# Results from ChEMBL document CHEMBL1141049, “Synthesis and structure-activity relationship of N-alkyl Gly-boro-Pro inhibitors of DPP4, FAP, and DPP7” (Bioorg Med Chem Lett, 2005).
# Assays:
# [1] = biological target: Dipeptidyl peptidase 4 (Homo sapiens, UniProt P27487); assay: Inhibitory activity against human DPP4 using Gly-Pro-AMC in fluorometric assay
# [2] = biological target: T1, Prolyl endopeptidase FAP (Homo sapiens, UniProt Q12884); assay: Inhibitory activity against human FAP using Lys-Pro-AMC in fluorimetric assay; No inhibition
# T1 sequence (Q12884 whole entry): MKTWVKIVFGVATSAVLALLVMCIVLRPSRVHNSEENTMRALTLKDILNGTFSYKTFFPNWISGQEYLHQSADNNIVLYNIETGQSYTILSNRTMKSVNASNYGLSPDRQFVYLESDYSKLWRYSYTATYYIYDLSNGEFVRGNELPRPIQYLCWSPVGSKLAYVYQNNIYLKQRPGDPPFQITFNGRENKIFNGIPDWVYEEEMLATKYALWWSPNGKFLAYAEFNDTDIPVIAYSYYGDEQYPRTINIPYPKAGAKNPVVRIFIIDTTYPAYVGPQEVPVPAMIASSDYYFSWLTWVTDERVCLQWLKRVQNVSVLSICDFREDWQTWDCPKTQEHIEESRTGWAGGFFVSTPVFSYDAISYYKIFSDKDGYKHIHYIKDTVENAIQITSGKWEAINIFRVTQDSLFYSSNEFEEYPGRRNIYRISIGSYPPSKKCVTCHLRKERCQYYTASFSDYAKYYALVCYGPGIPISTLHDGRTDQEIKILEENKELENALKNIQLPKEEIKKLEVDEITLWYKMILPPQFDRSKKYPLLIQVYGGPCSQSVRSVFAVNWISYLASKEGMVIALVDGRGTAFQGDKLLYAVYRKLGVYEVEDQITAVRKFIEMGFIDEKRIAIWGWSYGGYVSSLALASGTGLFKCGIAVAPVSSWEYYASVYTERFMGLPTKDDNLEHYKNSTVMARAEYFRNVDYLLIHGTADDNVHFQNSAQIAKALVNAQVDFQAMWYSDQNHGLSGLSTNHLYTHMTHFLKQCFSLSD
# [3] = biological target: T2, Dipeptidyl peptidase 2 (Homo sapiens, UniProt Q9UHL4); assay: Inhibitory activity against human DPP7 using Ala-Pro-AMC in fluorometric assay; No inhibition
# [4] = biological target: T2, Dipeptidyl peptidase 2; assay: Inhibitory activity against human DPP7 using Ala-Pro-AMC in fluorometric assay
# [5] = biological target: Prolyl endopeptidase FAP (Homo sapiens) (UniProt Q12884); assay: Inhibition of human FAP using Lys-Pro-AMC in fluorometric assay at 33 uM
# Sequence of Dipeptidyl peptidase 4 (P27487 whole entry): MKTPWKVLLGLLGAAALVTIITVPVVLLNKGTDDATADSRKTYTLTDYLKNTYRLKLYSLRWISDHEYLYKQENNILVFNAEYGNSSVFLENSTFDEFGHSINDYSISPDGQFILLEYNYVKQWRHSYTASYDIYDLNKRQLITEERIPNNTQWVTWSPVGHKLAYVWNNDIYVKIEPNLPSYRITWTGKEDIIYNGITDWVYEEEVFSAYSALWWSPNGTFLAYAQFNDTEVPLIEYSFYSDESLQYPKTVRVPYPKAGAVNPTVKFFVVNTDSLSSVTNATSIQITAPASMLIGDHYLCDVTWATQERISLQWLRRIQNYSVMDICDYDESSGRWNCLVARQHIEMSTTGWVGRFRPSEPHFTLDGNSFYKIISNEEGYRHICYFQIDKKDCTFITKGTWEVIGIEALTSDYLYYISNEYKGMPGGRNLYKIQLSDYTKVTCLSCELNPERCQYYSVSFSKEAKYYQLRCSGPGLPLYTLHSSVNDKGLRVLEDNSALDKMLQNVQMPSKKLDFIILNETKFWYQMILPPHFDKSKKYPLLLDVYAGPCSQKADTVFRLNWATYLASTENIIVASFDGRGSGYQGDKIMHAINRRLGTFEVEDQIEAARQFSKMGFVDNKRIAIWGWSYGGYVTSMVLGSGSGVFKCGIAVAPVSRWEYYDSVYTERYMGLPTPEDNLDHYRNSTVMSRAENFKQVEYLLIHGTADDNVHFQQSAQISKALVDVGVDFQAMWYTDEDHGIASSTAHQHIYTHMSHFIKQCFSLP
IC50 [1] [nM],IC50 [4] [nM],inhibition [5] [%],Structure (SMILES),IC50 [2],IC50 [3]
27,4.1,,O=C(CNC1CCCCC1)N1CCC[C@H]1B(O)O,,
25,8,,O=C(CNC1CC2CCCC1C2)N1CCC[C@H]1B(O)O (stereo partly specified),,
130,570,30,O=C(CNC1CC1)N1CCC[C@H]1B(O)O,,
7.8,1.8,,O=C(CNC1CCCCCC1)N1CCC[C@H]1B(O)O,,
1600,4600,,CN(CC(=O)N1CCC[C@@H]1B(O)O)C1C2CC3CC(C2)CC1C3 (stereo partly specified),,
58,2.2,,O=C(CNC1CCCCCCCCC1)N1CCC[C@H]1B(O)O,,
560,35,,CC12CC3(C)CC(C)(C1)CC(NCC(=O)N1CCC[C@@H]1B(O)O)(C2)C3,,
27,4,,O=C(CNC1CCCCCCC1)N1CCC[C@H]1B(O)O,,
25,15,,O=C(CNC1CCCC1)N1CCC[C@H]1B(O)O,,
,6.3,,C[C@@H](N)C(=O)N1CCC[C@H]1B(O)O,,
12,120,,O=C(CNC1C2CC3CC(C2)CC1C3)N1CCC[C@@H]1B(O)O (stereo partly specified),,
75,140,,O=C(CNC1CCC1)N1CCC[C@H]1B(O)O,,
8,420,,O=C(CNC12CC3CC(CC(C3)C1)C2)N1CCC[C@@H]1B(O)O,,
61,1,,CCCCCC12CCC(NCC(=O)N3CCC[C@H]3B(O)O)(CC1)CC2,,

Structure (SMILES),IC50 [1] [nM],IC50 [4] [nM],inhibition [5] [%],IC50 [2],IC50 [3]
CC(C)[C@@H](NC1CCCCC1)C(=O)N1CCC[C@H]1B(O)O,16000,,,Not Active,Not Active
